{
  "source": "patent US10238678B2",
  "about": "“Therapeutic methods” (GlaxoSmithKline LLC, priority 2011, dated 2019)",
  "origin": "cited, not measured here",
  "data": [
    {"smiles": "NC(=O)c1ncn([C@@H]2O[C@H](CO)[C@@H](O)[C@H]2O)n1", "note": "[Ribavirin]", "values": [
      {"measurement": "patients with significant hemolysis", "setting": "currently recommended doses", "result": "10-20%"},
      {"measurement": "teratogenicity and embryotoxicity", "setting": "in vivo", "result": "teratogenic and embryotoxic"}
    ]}
  ]
}
